Assay results from PMC12867150, “A fungi-derived cyclic peptide enhances Th9-mediated antitumor immunity by targeting ZAP70 and SREBP1” (The Journal of Clinical Investigation, 2025).
“And” between values parts separate entries of the source, which are not always exact repeats. Equal values may be shown once.

Experiments:
Format in all cases: cell-based, mouse
[1] = system: mitochondria of Th9 cells; assay: Transmission electron microscopy of mitochondrial number and diameter (Figure 4J-K)
Method: Mitochondrial mass and membrane potential were assessed using MitoTracker™ Deep Red FM (Thermo Fisher Scientific, catalog M22426) and TMRM (tetramethylrhodamine methyl ester; Macklin, catalog T868125), respectively, following the manufacturers’ protocols. Cells were incubated with the respective dyes, washed, and subjected to flow cytometry or fluorescence microscopy analysis. For ultrastructural assessment, mitochondrial number and diameter were quantified from high-resolution transmission electron microscopy (TEM) images using ImageJ software.

Th9 cells [2] = assay: Th9 differentiation, dose response, IL-9+ cells by flow cytometry (Figure 1D); set-up: IL-9+ Th9 differentiation: unit not given here; details: for IL-9+ Th9 differentiation: flow cytometry, individual replicates, n = 6
Method: IL-9 expression peaked at 10 μM, which was used for all subsequent experiments (Figure 1D).
Naive CD4^+ T cells were isolated from the spleens of C57BL/6J or CD45.1^+ OT-II mice using the MojoSort Mouse CD4 Naive T Cell Isolation Kit (BioLegend, catalog 480040), following the manufacturer’s protocol. Purified cells were cultured in RPMI-1640 medium supplemented with 10% FBS, 1% penicillin-streptomycin, and 0.1% β-mercaptoethanol (Gibco, catalog 21985023).
T cell polarization was initiated under plate-bound anti-CD3 (2 μg/mL, clone 17A2, BioXCell, catalog BE0002) and soluble anti-CD28 (1 μg/mL, clone 37.51, BioXCell, catalog BE0015-1) stimulation, with the addition of cytokines and neutralizing antibodies specific to each subset. For Th9 cells, these included IL-4 (10 ng/mL, Peprotech, catalog 400-04), TGF-β (1 ng/mL, EPOTO Biotech, catalog HF-2021), anti–IL-12 (5 μg/mL, clone C17.8, BioXCell, catalog BE0051), and anti–IFN-γ (10 μg/mL, clone XMG1.2, BioXCell, catalog BE0055); for Th1 cells, these included IL-12 (10 ng/mL, GenScript, catalog Z03211-50) and anti–IL-4 (5 μg/mL, clone 11B11, BioXCell, catalog BE0045); for Th2 cells, these included IL-4 (50 ng/mL), anti–IFN-γ (20 μg /mL), anti–IL-12 (5 μg/mL), Th17 cells: IL-6 (20 ng/mL, EPOTO Biotech, catalog MF-1006), TGF-β (1 ng/mL), IL-1β (10 ng/mL, Peprotech, catalog AF-211-11B), anti–IFN-γ (10 μg/mL), anti–IL-12 (5 μg/mL), and anti–IL-4 (5 μg/mL); and for Tregs, these included TGF-β (3 ng/mL). After 3 days of initial culture, cells were either collected for downstream assays or continued in extended culture with refreshed cytokines to maintain lineage commitment.
During the entire culture period, experimental groups were treated continuously with the indicated compound at the designated concentration, whereas control groups received an equal volume of DMSO.
BioLegend, Cat. No. 422301 or Mouse TruStain FcX™, BioLegend, Cat. No. 101319) for 10 minutes at 4°C. For surface marker detection, cells were stained with fluorochrome-conjugated monoclonal antibodies in 96-well V-bottom plates and incubated on ice for 30 minutes. After staining, cells were washed twice and resuspended in FACS buffer for analysis.
Prior to intracellular cytokine staining, cells were restimulated for 4 hours with PMA (Absin, Cat. No. abs9107), ionomycin (Sigma-Aldrich, Cat. No. I0634), and brefeldin A (MedChemExpress, Cat. No. HY-16592). For intracellular cytokine staining, cells were first surface-stained as described above, then fixed and permeabilized using the BD Cytofix/Cytoperm™ kit (BD Biosciences, Cat. No. 554714) according to the manufacturer ’s protocol. Intracellular proteins were stained with directly conjugated antibodies targeting IL-9, IL-17a, IL-4, IFN-γ, TNF-α, FOXP3, p-ZAP70, Perforin, and […]

Th9 cells [3] = assay: Intracellular ATP assay, luminescence (Figure 4L); details: result in words
Method: Intracellular adenosine triphosphate (ATP) levels were measured using a chemiluminescent ATP assay kit (Beyotime, catalog S0026) according to the manufacturer’s protocol. Briefly, cells were lysed and incubated with the luciferase-based detection reagent, and the resulting luminescent signal was detected using an Infinite M200 multimode microplate reader (TECAN). ATP concentrations were calculated based on a standard curve and normalized to cell number or protein content where applicable.

In the case of anteiso-C15 Leu7 surfactin [EpA], the Number of mitochonodrion/cell ([1]; Figure 4J, individual cells) is reported as 12 and 23 and 11 and 16 and 10 and 21 and 9 and 17 and 6 and 7 and 24, the “number and diameter of mitochondria” value ([1]; result in words) is reported as “increased number and diameter of mitochondria” and the “IL-9+ Th9 differentiation” value (Th9 cells [2]; EpA 1 μM) is reported as 49.4 and 48.8 and 36.1 and 37.3 and 36.5 and 50.3. For the same substance, the “IL-9+ Th9 differentiation” value (Th9 cells [2]; EpA 10 μM) was 82.5 and 80.4 and 79.9 and 77.4 (2×) and 76.3, the “IL-9+ Th9 differentiation” value (Th9 cells [2]; EpA 20 μM) was 52.4 and 52.2 and 48.1 and 34.8 and 36 and 37.3 and the “concentration at which IL-9 expression peaked” value (Th9 cells [2]; increasing concentrations of EpA) was 10 µM. The “intracellular ATP levels” value (Th9 cells [3]) was “significantly elevated”.
